Source: patent publication US12030883B2, “Hetero-tricyclic compounds as inhibitors of KRAS” (Incyte Corporation, priority 2021, dated 2024)

Key:
KRAS G12D [1] = target: T1, KRAS G12D (Homo sapiens, UniProt P01116, G12D); assay: KRAS_G12D pERK assay (cellular pERK HTRF assay); assay type: cell-based; set-up: host or cells: A427 or HPAF-II; settings: KRAS G12D cells (A427, HPAF-II named in method), 2 hours incubation, Phospho-ERK 1/2 HTRF; read-out: G12D_PERK (KRAS_G12D pERK assay IC50)
Description: MIA PaCa-2 (KRAS G12C; ATCC® CRL-1420), A427 (KRAS G12D; ATCC® HTB53), HPAF-II (KRAS G12D; ATCC® CRL-1997) and NCI-H838 (KRAS WT; ATCC® CRL-5844) cells are purchased from ATCC and maintained in RPMI 1640 media supplemented with 10% FBS (Gibco/Life Technologies). The cells are plated at 5000 cells per well (8 uL) into Greiner 384-well low volume, flat-bottom, tissue culture treated white plates and incubated overnight at 37° C., 5% CO2. The next morning, test compound stock solutions are diluted in media at 3× the final concentration, and 4 uL are added to the cells. The plate is mixed by gentle rotation for 30 seconds (250 rpm) at room temperature. The cells are incubated with the KRAS G12C and G12D compounds for 4 hours or 2 hours respectively at 37° C., 5% CO2.
4 uL of 4× lysis buffer with blocking reagent (1:25) (Cisbio) are added to each well and plates are rotated gently (300 rpm) for 30 minutes at room temperature. 4 uL per well of Cisbio anti Phospho-ERK 1/2 d2 is mixed with anti Phospho-ERK 1/2 Cryptate (1:1) are added to each well, mixed by rotation and incubated overnight in the dark at room temperature. Plates are read on the Pherastar plate reader at 665 nm and 620 nm wavelengths. IC50 determination is performed by fitting the curve of inhibitor percent inhibition versus the log of the inhibitor concentration using the GraphPad Prism 7 software.

KRAS G12V = KRAS G12V (Homo sapiens, UniProt P01116, G12V); assay: GDP-GTP exchange assay, KRAS G12V (bodipy-GDP/GppNHp, SOS1); assay type: biochemical; settings: bodipy-loaded KRAS G12V 2.5 nM, 3 hours pre-incubation with inhibitor, SOS1 150 nM, GppNHp 500 uM; read-out: G12V_exchange (KRAS_G12V exchange assay IC50)
Sequence of KRAS G12V (P01116 1-188 isoform P01116-2 G12V): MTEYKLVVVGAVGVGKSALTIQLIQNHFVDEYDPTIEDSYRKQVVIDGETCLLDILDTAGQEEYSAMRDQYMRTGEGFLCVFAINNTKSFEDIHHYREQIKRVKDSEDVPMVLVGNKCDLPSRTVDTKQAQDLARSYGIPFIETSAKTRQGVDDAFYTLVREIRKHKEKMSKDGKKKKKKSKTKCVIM
Description: (§1) The inhibitor potency of the exemplified compounds was determined in a fluorescence based guanine nucleotide exchange assay, which measures the exchange of bodipy-GDP (fluorescently labeled GDP) for GppNHp (Non-hydrolyzable GTP analog) to generate the active state of KRAS in the presence of SOS1 (guanine nucleotide exchange factor). Inhibitors were serially diluted in DMSO and a volume of 0.1 μL was transferred to the wells of a black low volume 384-well plate. Five μL/well volume of bodipy-loaded KRAS G12D or G12V diluted to a final concentration of 2.5 nM in assay buffer (25 mM Hepes pH 7.5, 50 mM NaCl, 10 mM MgCl2 and 0.01% Brij-35) was added to the plate and pre-incubated with inhibitor for 4 hours (G12D) or 3 hours (G12V) at ambient temperature. A cyclic peptide described to selectively bind G12D mutant (Sakamoto et al., BBRC 484.3 (2017), 605-611) or internal compounds with confirmed binding were used as positive controls in the assay plates. The exchange was initiated by the addition of a 5 μL/well volume containing 1 mM GppNHp and 300 nM SOS1 in assay buffer. The 10 μL/well reaction concentration of the bodipy-loaded KRAS G12D or G12V, GppNHp, and SOS1 were 2.5 nM, 500 uM, and 150 nM, respectively.
(§2) Either GraphPad prism or XLfit was used to analyze the data. The IC50 values were derived by fitting the data to a four parameter logistic equation producing a sigmoidal dose-response curve with a variable Hill coefficient. Prism equation: Y=Bottom+(Top−Bottom)/(1+10^((LogIC50-X)*Hill slope)); XLfit equation: Y=(A+((B−A)/(1+((X/C)^D)))) where X is the logarithm of inhibitor concentration and Y is the response.

KRAS G12D [2] = target: T1, KRAS G12D; assay: GDP-GTP exchange assay, KRAS G12D (bodipy-GDP/GppNHp, SOS1); assay type: biochemical; settings: bodipy-loaded KRAS G12D 2.5 nM, 4 hours pre-incubation with inhibitor, SOS1 150 nM, GppNHp 500 uM; read-out: G12D_exchange (KRAS_G12D exchange assay IC50)
Description: as §1, §2

T1 sequence (P01116 1-188 isoform P01116-2 G12D): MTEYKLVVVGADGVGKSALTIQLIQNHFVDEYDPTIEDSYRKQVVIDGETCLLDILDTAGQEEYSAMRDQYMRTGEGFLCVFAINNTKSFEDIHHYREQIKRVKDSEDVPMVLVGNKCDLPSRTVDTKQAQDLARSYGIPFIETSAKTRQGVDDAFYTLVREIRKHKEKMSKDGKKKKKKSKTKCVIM

Compound | IC50 (KRAS G12D [1]) | IC50 (KRAS G12V) | IC50 (KRAS G12D [2])
C[C@H](Oc1nc2c(F)c(-c3cccc4ccc(F)cc34)c(CCC#N)cc2c2c1NC(=O)CN2C1C2CNC1C2)[C@@H]1CCCN1C (single isomer, unassigned) [Example 3a] | ≤ 100 nM | ≤ 100 nM | ≤ 100 nM
CN1CCC[C@H]1COc1nc2c(F)c(-c3cc(O)cc4ccccc34)c(CCC#N)cc2c2c1CCCN2C1C2CNC1C2 (single isomer, unassigned) [Example 12b] | 100 to 1000 nM | ≤ 100 nM | ≤ 100 nM
N#CCCc1cc2c3c(c(-c4ccc5cccnc5c4)nc2c(F)c1-c1cc(O)cc2ccccc12)NC(=O)CN3C1C2CNC1C2 (single isomer, unassigned) [Example 6a, 3-(1-((endo)-2-Azabicyclo[2.1.1]hexan-5-yl)-7-fluoro-8-(3-hydroxynaphthalen-1-yl)-3-oxo-5-(quinolin-7-yl)-1,2,3,4-tetrahydropyrazino[2,3-c]quinolin-9-yl)propanenitrile] | 1000 to 5000 nM | ≤ 100 nM | ≤ 100 nM
C[C@H](Oc1nc2c(F)c(-c3cccc(Cl)c3Cl)c(CCC#N)cc2c2c1c(=O)c(-c1cnn(C)c1)cn2[C@H]1[C@H]2CN[C@@H]1C2)[C@@H]1CCCN1C (single isomer, unassigned) [Example 24a] | 5000 to 10000 nM | ≤ 100 nM | ≤ 100 nM
CN(C)C1CN(c2nc3c(F)c(-c4cc(O)cc5ccccc45)c(CCC#N)cc3c3c2NC(=O)CN3C2C3CNC2C3)C1 (single isomer, unassigned) [Example 13a, 3-(1-((endo)-2-Azabicyclo[2.1.1]hexan-5-yl)-5-(3-(dimethylamino)azetidin-1-yl)-7-fluoro-8-(3-hydroxynaphthalen-1-yl)-3-oxo-1,2,3,4-tetrahydropyrazino[2,3-c]quinolin-9-yl)propanenitrile] | 1000 to 5000 nM | ≤ 100 nM | ≤ 100 nM
Cc1cc2c(nc(O[C@@H](C)[C@@H]3CCCN3C)c3c(=O)c(Nc4cnn(C)c4)cn([C@H]4[C@H]5CN[C@@H]4C5)c32)c(F)c1-c1cccc2c1C(C#N)CCC2 (single isomer, unassigned) [Example 26b] | 5000 to 10000 nM | 100 to 1000 nM | ≤ 100 nM
C[C@H](Oc1nc2c(F)c(-c3cc(O)cc4ccc(F)cc34)c(CCC#N)cc2c2c1NC(=O)CN2C1C2CNC1C2)[C@@H]1CCCN1C (single isomer, unassigned) [Example 4d] | 1000 to 5000 nM | 100 to 1000 nM | ≤ 100 nM
C[C@H](Oc1nc2c(F)c(-c3cc(O)cc4ccc(F)cc34)c(CCC#N)cc2c2c1NC(=O)CN2C1C2CNC1C2)[C@@H]1CCCN1C (single isomer, unassigned) [Example 4c] | ≤ 100 nM | ≤ 100 nM | ≤ 100 nM
C[C@@H](CN(C)C)Oc1nc2c(F)c(-c3cc(O)cc4ccccc34)c(CCC#N)cc2c2c1CCCN2C1C2CNC1C2 (single isomer, unassigned) [Example 16b] | 100 to 1000 nM | ≤ 100 nM | ≤ 100 nM
CC1Cc2c(OC[C@@H]3CCCN3C)nc3c(F)c(-c4cc(O)cc5ccccc45)c(CCC#N)cc3c2N(C2C3CNC2C3)C1 (single isomer, unassigned) [Example 14a] | 100 to 1000 nM | ≤ 100 nM | ≤ 100 nM
C[C@H](Oc1nc2c(F)c(-c3cccc(Cl)c3Cl)c(CCC#N)cc2c2c1c(=O)c(-c1cnn(C)c1)cn2[C@H]1[C@H]2CN[C@@H]1C2)[C@@H]1CCCN1C (single isomer, unassigned) [Example 24b] | 100 to 1000 nM | ≤ 100 nM | ≤ 100 nM
C[C@H](Oc1nc2c(F)c(-c3cc(O)cc4ccccc34)c(CCC#N)cc2c2c1CCCN2C1C2CNC1C2)[C@@H]1CCCN1C (single isomer, unassigned) [Example 15b] | ≤ 100 nM | ≤ 100 nM | ≤ 100 nM
N#CCCc1cc2c3c(cnc2c(F)c1-c1cc(O)cc2ccccc12)NC(=O)CN3[C@@H]1[C@@H]2CN[C@H]1C2 (racemic) [Example 20a, 3-(1-((endo)-2-Azabicyclo[2.1.1]hexan-5-yl)-7-fluoro-8-(3-hydroxynaphthalen-1-yl)-3-oxo-1,2,3,4-tetrahydropyrazino[2,3-c]quinolin-9-yl)propanenitrile] | 5000 to 10000 nM | ≤ 100 nM | ≤ 100 nM
C[C@H](Oc1nc2c(F)c(-c3c[nH]c4ccccc34)c(CCC#N)cc2c2c1NC(=O)CN2C1C2CNC1C2)[C@@H]1CCCN1C (single isomer, unassigned) [Example 1a] | ≤ 100 nM | ≤ 100 nM | ≤ 100 nM
C[C@@H](CN(C)C)Oc1nc2c(F)c(-c3cc(O)cc4ccccc34)c(CCC#N)cc2c2c1NC(=O)CN2C1C2CNC1C2 (single isomer, unassigned) [Example 11c] | 100 to 1000 nM | ≤ 100 nM | ≤ 100 nM
Cc1cc2c(nc(O[C@@H](C)[C@@H]3CCCN3C)c3c(=O)ccn([C@H]4[C@H]5CN[C@@H]4C5)c32)c(F)c1-c1cccc2c1C(C#N)CCC2 (stereo partly drawn) [Example 23, 8-(1-((1R,4R,5S)-2-azabicyclo[2.1.1]hexan-5-yl)-7-fluoro-9-methyl-5-((S)-1-((S)-1-methylpyrrolidin-2-yl)ethoxy)-4-oxo-1,4-dihydrobenzo[h][1,6]naphthyridin-8-yl)-1,2,3,4-tetrahydronaphthalene-1-carbonitrile] | ≤ 100 nM | ≤ 100 nM | ≤ 100 nM
N#CCCc1cc2c3c(c(OC[C@@]45CCCN4C[C@H](F)C5)nc2c(F)c1-c1cc(O)cc2ccccc12)NC(=O)CN3C1C2CNC1C2 (single isomer, unassigned) [Example 10a] | 1000 to 5000 nM | ≤ 100 nM | ≤ 100 nM
N#CCCc1cc2c3c(c(OC[C@@]45CCCN4C[C@H](F)C5)nc2c(F)c1-c1cc(O)cc2ccccc12)NC(=O)CN3C1C2CNC1C2 (single isomer, unassigned) [Example 10b] | 1000 to 5000 nM | ≤ 100 nM | ≤ 100 nM
CC1Cc2c(OC[C@@H]3CCCN3C)nc3c(F)c(-c4cc(O)cc5ccccc45)c(CCC#N)cc3c2N(C2C3CNC2C3)C1 (single isomer, unassigned) [Example 14b] | 1000 to 5000 nM | ≤ 100 nM | ≤ 100 nM
CNC(=O)c1cccc(-c2nc3c(F)c(-c4cc(O)cc5ccccc45)c(CCC#N)cc3c3c2NC(=O)CN3C2C3CNC2C3)c1 (single isomer, unassigned) [Example 9a, 3-(1-((endo)-2-Azabicyclo[2.1.1]hexan-5-yl)-9-(2-cyanoethyl)-7-fluoro-8-(3-hydroxynaphthalen-1-yl)-3-oxo-1,2,3,4-tetrahydropyrazino[2,3-c]quinolin-5-yl)-N-methylbenzamide] | 1000 to 5000 nM | ≤ 100 nM | ≤ 100 nM
CNC(=O)c1cccc(-c2nc3c(F)c(-c4cc(O)cc5ccccc45)c(CCC#N)cc3c3c2NC(=O)CN3C2C3CNC2C3)c1 (single isomer, unassigned) [Example 9b, 3-(1-((endo)-2-Azabicyclo[2.1.1]hexan-5-yl)-9-(2-cyanoethyl)-7-fluoro-8-(3-hydroxynaphthalen-1-yl)-3-oxo-1,2,3,4-tetrahydropyrazino[2,3-c]quinolin-5-yl)-N-methylbenzamide] |  | 1000 to 5000 nM | 1000 to 5000 nM
